{"source": "patent US20140315975A1", "about": "“APOPTOSIS-INDUCING AGENT” (NITTO DENKO CORPORATION, priority 2011, published 2014)", "system": "EGFR/PI3K/Akt/mTOR signal cascade", "assay": "Western blot of EGFR/PI3K/Akt/mTOR signal", "type": "cell-based", "settings": "M7609 cells, compared with Scramble siRNA (FIG. 11)", "protocol": "Expression of each protein constituting the EGFR/PI3K/Akt/mTOR signal cascade was analyzed in the same way as for Example 1 (1), (2), and (4) except that, as primary antibodies, anti-p-EGFR (Tyr1068) antibody (Cell Signaling), anti-EGFR antibody (Santa Cruz), anti-p-PI3K p85 (Tyr458)/p55 (Tyr199) antibody (Cell Signaling), anti-PI3K, p85 antibody (MILLIPORE), anti-p-Akt (Ser473) antibody (Cell Signaling), anti-Akt antibody (Cell Signaling), anti-p-p70S6K (Thr389) antibody (Cell Signaling), anti-p-p70S6K (Thr421/Ser424) antibody (Cell Signaling), and anti-p70S6K antibody (Cell Signaling) were used."}
{"substance": "GST-π siRNA: GST-π siRNA (SEQ ID No: 1: GGGAGGCAAGACCUUCAUUTT, siRNA ID#2385, Ambion) (chemistry not given here)", "values": [{"measurement": "phosphorylation of each protein constituting the EGFR/PI3K/Akt/mTOR signal cascade", "result": "reduced"}]}
